Data from US20250281424A1 (New York Blood Center, Inc, priority 2020, published 2025).

Target: T1, human PF4 (Homo sapiens, UniProt P02776)
T1 construct: PF4 is a 70 amino acid, lysine-rich 7.8 kDa platelet-specific protein; made in house; host or cells: Escherichia coli BL21DE3 pLysS (pT7-7) and/or Drosophila S2 cells
T1 sequence (P02776 32-101): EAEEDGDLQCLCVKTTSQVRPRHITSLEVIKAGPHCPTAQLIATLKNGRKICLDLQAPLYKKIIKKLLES
Assay: Inhibition of PF4 tetramer formation (BS3 cross-linking, SDS-PAGE)
Type: biochemical
Details: for inhibition at 5 µM: 5 μM inhibitor; for inhibition at 5 µM / inhibition at 10 µM / inhibition at 1 µM / inhibition at 3 µM: read-out: % inhibition of PF4 tetramer formation at single concentration of inhibitor; for inhibition at 10 µM: 10 μM inhibitor (column A); for IC50: read-out: IC50 of PF4 tetramer formation inhibition; for inhibition at 1 µM: 1 μM inhibitor; for inhibition at 3 µM: 3 μM inhibitor (column A)
Method: Compounds of Examples 1-38, 65-301, 303, 305, 307, 309, 311, 313, 314, 316, and 318-404 were tested using SDS PAGE analysis of BS3 crosslinked PF4 for their ability to prevent PF4 tetramer formation. […] See, Suvarna et al., Throm. Res, 122:211-220 (2008), which is hereby incorporated by reference, at least for a detailed description of this technique.
cDNA encoding human PF4 was cloned into the plasmid μMT/BiPN5-His A (Invitrogen Corp., Carlsbad CA) for expression in the Drosophila Expression System (Invitrogen, Carlsbad, CA). Cloning was performed using Bg1 II and Age I cloning sites. A hexanucleotide encoding Bg1 II site was then eliminated by site-directed mutagenesis so that the expressed protein contained full-length wild type (wt) PF4 or PF4^K50E with an identical sequence as their counterparts expressed in E. coli. See, method described in Sachais et al (Sachais, B. S. et al. (2012). Blood 119(25): 5955-5961). PF4 expression was induced by adding copper sulfate (0.5 mM). The induced S2 cells were incubated in serumfree Insect-Xpress™ media (Lonza, Walkersville, MD) for 3-5 days; supernatants were collected, sodium azide (0.02% final concentration) and EDTA (2.5 mM final concentration) were added, and the media were filtered through an Express® PLUS 0.22 μm filter (Millipore Corp., Billerica, MA).
Wild-type (WT) human PF4 in the pT7-7 vector (Novagen, Madison, WI) was expressed in the Escherichia coli strain BL21DE30 pLysS (Stratagene, La Jolla, CA), and purified and characterized as described by Rauova et al. (Rauova, L. et al. (2006). Blood 107(6): 2346-2353) and Park et al., (Blood, 75:1290-1295 (1990)), which are hereby incorporated by reference. Briefly, recombinant protein was isolated from the supernatant of the bacterial lysate by affinity chromatography using a HiTrap high-performance (HP) affinity column. WT PF4 was purified from the media on a heparin HiTrap® column on an ÄTKAPrime™ system (GE Healthcare) at 4° C. in Tris (10 mM), EDTA (1 mM), and pH 8 buffer. Media was loaded in buffer containing NaCl (0.5 M) and PF4 was eluted at 1.8 M NaCl using a linear gradient. Fractions containing purified PF4 as detected by silver staining of 12% NuPAGE Bis-Tris gels (Invitrogen) were pooled, concentrated and buffer exchanged into 50 mM HEPES, 0.5 M NaCl, pH—7.2 using an Amicon® Ultra centrifugal filter (3K NMWL, Millipore Corp). Protein was quantified using a BCA assay.
Compounds of Examples 1-38, 65-196, and 209-228 were then tested for their ability to inhibit PF4 tetramer formation using a cross-linking assay as described in Rauova cited above. Specifically, hPF4 (10 μg/ml) in phosphate-buffered saline (PBS) was incubated at 37° C. for 15 min in the absence of the antagonistic compounds (control sample) and presence of compounds. Cross-linking and SDS-PAGE analysis were then performed as described in “Analysis of PF4 multimerization” of Rauova. The relative amounts of PF4 in each of the monomer, dimer, trimer and tetramer form were calculated by analyzing the samples on a 12% SDS-polyacrylamide gel under reducing conditions. Bands were quantified using the Kodak ID Image Analysis system (Kodak, Rochester, NY). The SigmaMarker™ reagent served as the molecular weight standard. Data was compiled and bar graphed as % PF4 for the tetramer, trimer, dimer, and monomer as a function of concentration for the test and control samples.
This experiment was performed in a manner similar to experiment 1, but PF4 (10 μg/ml) in PBS was independently incubated with compounds of Examples 1-38, 65-196, and 209-228 for 60 min at room temperature, followed by the addition of cross-linking reagent bis(sulfosuccinimidyl)suberate (0.2 mM) for 30 min at room temperature. The reaction was stopped by adding NuPAGE® lithium dodecyl sulfate (LDS) sample buffer, and denatured by heating to 70° C. for 10 min according to the manufacturer's instructions. […]

inhibition at 1 µM [%]	inhibition at 3 µM [%]	Compound	inhibition at 5 µM [%]	inhibition at 10 µM [%]	IC50 [nM]
–	–	C[C@@H](C(=O)C1C(=O)c2ccc(S(=O)(=O)c3ccc4c(c3)C(=O)C(C(=O)[C@H](C)N(C)C(=O)OC(C)(C)C)C4=O)cc2C1=O)N(C)C(=O)OC(C)(C)C (stereo partly drawn) [Example 156, tert-butyl N-[(2S)-1-[5-({2-[(2S)-2-{[(tert-butoxy)carbonyl](methyl)amino}propanoyl]-1,3-dioxo-2,3-dihydro-1H-inden-5-yl}sulfonyl)-1,3-dioxo-2,3-dihydro-1H-inden-2-yl]-1-oxopropan-2-yl]-N-methylcarbamate]	94	100	6300
–	–	O=C(c1ccc2c(c1)C(=O)C(C(=O)CC1CCCC1)C2=O)c1ccc2c(c1)C(=O)C(C(=O)CC1CCCC1)C2=O (centres unmarked) [Example 141, 2-(2-cyclopentylacetyl)-5-[2-(2-cyclopentylacetyl)-1,3-dioxo-2,3-dihydro-1H-indene-5-carbonyl]-2,3-dihydro-1H-indene-1,3-dione]	38	68	–
14	29	O=C(c1ccnc(-c2ccccc2)c1)C1C(=O)c2ccc(S(=O)(=O)c3ccc4c(c3)C(=O)C(C(=O)c3ccnc(-c5ccccc5)c3)C4=O)cc2C1=O (centres unmarked) [Example 241, 5-{[1,3-dioxo-2-(2-phenylpyridine-4-carbonyl)-2,3-dihydro-1H-inden-5-yl]sulfonyl}-2-(2-phenylpyridine-4-carbonyl)-2,3-dihydro-1H-indene-1,3-dione]	–	–	–
–	25	CN1CCC(C(=O)C2C(=O)c3ccc(C(=O)c4ccc5c(c4)C(=O)C(C(=O)C4CCN(C)CC4)C5=O)cc3C2=O)CC1 (centres unmarked) [Example 266, 2-(1-methylpiperidine-4-carbonyl)-5-[2-(1-methylpiperidine-4-carbonyl)-1,3-dioxo-2,3-dihydro-1H-indene-5-carbonyl]-2,3-dihydro-1H-indene-1,3-dione]	–	–	–
47	100	O=C(NC1CCC1)C1C(=O)c2ccc(S(=O)(=O)c3ccc4c(c3)C(=O)C(C(=O)NC3CCC3)C4=O)cc2C1=O (centres unmarked) [Example 292, N-cyclobutyl-5-{[2-(cyclobutylcarbamoyl)-1,3-dioxo-2,3-dihydro-1H-inden-5-yl]sulfonyl}-1,3-dioxo-2,3-dihydro-1H-indene-2-carboxamide]	–	–	1260
–	–	CC(C)(C)OC(=O)N[C@@H](C(=O)C1C(=O)c2ccc(C(=O)c3ccc4c(c3)C(=O)C(C(=O)[C@H](NC(=O)OC(C)(C)C)c3ccccc3)C4=O)cc2C1=O)c1ccccc1 (stereo partly drawn) [Example 170, tert-butyl N-[(1R)-2-(5-{2-[(2R)-2-{[(tert-butoxy)carbonyl]amino}-2-phenylacetyl]-1,3-dioxo-2,3-dihydro-1H-indene-5-carbonyl}-1,3-dioxo-2,3-dihydro-1H-inden-2-yl)-2-oxo-1-phenylethyl]carbamate]	76	85	3400
7	100	O=C(c1ccc2c(c1)C(=O)C(C(=O)Cc1cccnc1)C2=O)c1ccc2c(c1)C(=O)C(C(=O)Cc1cccnc1)C2=O (centres unmarked) [Example 238, 5-{1,3-dioxo-2-[2-(pyridin-3-yl)acetyl]-2,3-dihydro-1H-indene-5-carbonyl}-2-[2-(pyridin-3-yl)acetyl]-2,3-dihydro-1H-indene-1,3-dione]	–	–	–
–	–	C[C@@H](C(=O)C1C(=O)c2ccc(C(=O)c3ccc4c(c3)C(=O)C(C(=O)[C@H](C)N(C)C(=O)OC(C)(C)C)C4=O)cc2C1=O)N(C)C(=O)OC(C)(C)C (stereo partly drawn) [Example 155, tert-butyl N-[(2S)-1-(5-{2-[(2S)-2-{[(tert-butoxy)carbonyl](methyl)amino}propanoyl]-1,3-dioxo-2,3-dihydro-1H-indene-5-carbonyl}-1,3-dioxo-2,3-dihydro-1H-inden-2-yl)-1-oxopropan-2-yl]-N-methylcarbamate]	95	100	2100
–	–	CC(C)CCCC(=O)C1C(=O)c2ccc(C(c3ccc4c(c3)C(=O)C(C(=O)CCCC(C)C)C4=O)(C(F)(F)F)C(F)(F)F)cc2C1=O (centres unmarked) [Example 194, 5-{1,1,1,3,3,3-hexafluoro-2-[2-(5-methylhexanoyl)-1,3-dioxo-2,3-dihydro-1H-inden-5-yl]propan-2-yl}-2-(5-methylhexanoyl)-2,3-dihydro-1H-indene-1,3-dione]	–	–	~1500
–	–	CC(C)CC(=O)C1C(=O)c2ccc(S(=O)(=O)c3ccc4c(c3)C(=O)C(C(=O)CC(C)C)C4=O)cc2C1=O (centres unmarked) [Example 145, 2-(3-methylbutanoyl)-5-{[2-(3-methylbutanoyl)-1,3-dioxo-2,3-dihydro-1H-inden-5-yl]sulfonyl}-2,3-dihydro-1H-indene-1,3-dione]	45	55	–
–	–	COC(=O)CCCC(=O)C1C(=O)c2ccc(-c3ccc4c(c3)C(=O)C(C(=O)CCCC(=O)OC)C4=O)cc2C1=O (centres unmarked) [Example 226, methyl 5-[2′-(5-methoxy-5-oxopentanoyl)-1,1′,3,3′-tetraoxo-1H,1′H,2H,2′H,3H,3′H-[5,5′-biinden]-2-yl]-5-oxopentanoate]	77	92	4000
–	–	CCCC(=O)C1C(=O)c2ccc(S(=O)(=O)c3ccc4c(c3)C(=O)C(C(=O)CCC)C4=O)cc2C1=O (centres unmarked) [Example 322, 2-butanoyl-5-[(2-butanoyl-1,3-dioxo-2,3-dihydro-1H-inden-5-yl)sulfonyl]-2,3-dihydro-1H-indene-1,3-dione]	–	40	–
–	–	CC(C)OC(=O)N1CCC[C@H]1C(=O)C1C(=O)c2ccc(C(=O)c3ccc4c(c3)C(=O)C(C(=O)[C@@H]3CCCN3C(=O)OC(C)C)C4=O)cc2C1=O (stereo partly drawn) [Example 134, propan-2-yl (2S)-2-(5-{1,3-dioxo-2-[(2S)-1-[(propan-2-yloxy)carbonyl]pyrrolidine-2-carbonyl]-2,3-dihydro-1H-indene-5-carbonyl}-1,3-dioxo-2,3-dihydro-1H-indene-2-carbonyl)pyrrolidine-1-carboxylate]	–	–	1100
–	–	CC(C)(C)CC(=O)NCC(=O)C1C(=O)c2ccc(C(=O)c3ccc4c(c3)C(=O)C(C(=O)CNC(=O)CC(C)(C)C)C4=O)cc2C1=O (centres unmarked) [Example 185, N-[2-(5-{2-[2-(3,3-dimethylbutanamido)acetyl]-1,3-dioxo-2,3-dihydro-1H-indene-5-carbonyl}-1,3-dioxo-2,3-dihydro-1H-inden-2-yl)-2-oxoethyl]-3,3-dimethylbutanamide]	89	94	4400

Compound	inhibition at 1 µM [%]	inhibition at 3 µM [%]	inhibition at 5 µM [%]	inhibition at 10 µM [%]	IC50 [nM]
CCCC(=O)C1C(=O)c2ccc(Oc3ccc4c(c3)C(=O)C(C(=O)CCC)C4=O)cc2C1=O (centres unmarked) [Example 321, 2-butanoyl-5-[(2-butanoyl-1,3-dioxo-2,3-dihydro-1H-inden-5-yl)oxy]-2,3-dihydro-1H-indene-1,3-dione]	17	23	–	–	–
